From paper PMC5547393, “Aromatase inhibitory activity of 1,4-naphthoquinone derivatives and QSAR study” (EXCLI Journal, 2017)

Tests used:
[1] = system: MRC-5 cell line; assay: Cytotoxicity against the normal MRC-5 cell line; type: cell-based; conditions: MRC-5 cytotoxicity versus aromatase IC50
Source text: The cytotoxicity of compounds 1-11 against the normal MRC-5 cell line (Table 1(Tab. 1)) was previously documented (Prachayasittikul et al., 2014[35]).

[2] = system: MRC-5 cell line; set-up: method as in Prachayasittikul et al., 2014[35]; conditions: normal MRC-5 cell line, ref Prachayasittikul et al., 2014[35], cited from earlier work; for IC50: read-out: MRC-5 (µM) cytotoxicity
[3] = biological target: T1, recombinant human aromatase (CYP19) (Homo sapiens, UniProt P11511); assay: Aromatase inhibition assay (Gentest kit, CYP19 with DBF fluorometric substrate); conditions: for Aromatase inhibitory activity category: category by experimental IC50
T1 sequence (P11511 1-503): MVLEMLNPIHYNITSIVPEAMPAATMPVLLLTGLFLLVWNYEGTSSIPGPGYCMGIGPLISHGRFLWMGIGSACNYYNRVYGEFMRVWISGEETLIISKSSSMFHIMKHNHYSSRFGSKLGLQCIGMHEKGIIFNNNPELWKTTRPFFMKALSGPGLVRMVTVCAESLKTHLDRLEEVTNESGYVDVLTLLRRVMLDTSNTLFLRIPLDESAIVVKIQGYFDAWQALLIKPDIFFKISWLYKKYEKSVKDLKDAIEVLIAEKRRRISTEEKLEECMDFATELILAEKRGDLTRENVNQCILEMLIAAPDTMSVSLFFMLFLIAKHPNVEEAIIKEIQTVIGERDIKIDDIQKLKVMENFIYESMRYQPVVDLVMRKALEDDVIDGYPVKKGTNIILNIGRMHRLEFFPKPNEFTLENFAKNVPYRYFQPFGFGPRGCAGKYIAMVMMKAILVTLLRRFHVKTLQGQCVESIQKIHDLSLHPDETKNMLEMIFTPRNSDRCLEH
Method: The assay was performed with a Gentest kit using enzyme CYP19 and DBF as a fluorometric substrate. DBF was dealkylated by aromatase and then hydrolyzed, yielding the fluorescein product. […] After the incubation at 37 °C for 30 min, the reaction was terminated by adding 50 µL of 2.2 N NaOH. […] The percentage of inhibition (% inhibition) was calculated using Equation 1. […] IC50 values were determined by plotting concentrations versus % inhibition.

[4] = system: aromatase; assay: QSAR (MLR) prediction of aromatase inhibitory activity; conditions: for folds more potent than the compared analogue: pairs: 6c > 6, 7c > 7, 7a > 7, 6 > 6a, 7b > 7a, pIC50 based; for pIC50 fold greater than parent compound 1: predicted pIC50 versus experimental pIC50 0.301 of compound 1
Source text: Conceptually, a QSAR model was constructed using the data obtained from experimentally tested compounds (1-11). The constructed model was subsequently used to predict the activity of the additional set of structurally modified compounds (series 1-11) that were generated in silico.
Chemical structures of the tested compounds (1-11) along with their experimental IC50 values were used to construct the QSAR model. The IC50 values were converted to pIC50 values by taking the negative logarithm to base 10 (-log IC50) to obtain a normal distribution of data points.
The chemical structures of 11 tested compounds (1-11) and 39 structurally modified compounds (series 1-11) were drawn using the GaussView software (Dennington et al., 2003[11]). Optimization was performed to obtain the low-energy conformers for further calculation of molecular descriptor values. The compounds were geometrically optimized using Gaussian 09 (Frisch et al., 2009[13]) at the semi-empirical Austin Model 1 (AM1) level, followed by density functional theory (DFT) calculation using Becke's three-parameter hybrid method with the Lee-Yang-Parr correlation functional (B3LYP) together with the 6-31g(d) level. A set of 13 quantum chemical descriptors, i.e., mean absolute atomic charge (Qm), total energy (Etotal), total dipole moment (μ), highest occupied molecular orbital energy (EHOMO), lowest unoccupied molecular orbital energy (ELUMO), energy difference of HOMO and LUMO (HOMO-LUMOGap), electron affinity (EA), ionization potential (IP), Mulliken electronegativity (χ), hardness (η), softness (S), electrophilic index (ωi) and electrophilicity (ω), was extracted using a script developed in-house. The optimized structures were further calculated to obtain an additional set of 3,224 molecular descriptors using Dragon software version 5.5 (Talete, 2007[44]). The molecular descriptors obtained from the Dragon software included 22 classes, i.e., Constitutional descriptors, Topological descriptors, Walk and path counts, Connectivity indices, Information indices, 2D autocorrelation, Edge adjacency indices, Burden eigenvalues, Topological charge indices, Eigenvalue-based indices, Randic molecular profiles, Geometrical descriptors, RDF descriptors, 3D-MoRSE descriptors, WHIM descriptors, GETAWAY descriptors, Functional group counts, Atom-centered fragments, Charge descriptors, Molecular properties, 2D binary fingerprints and 2D frequency fingerprints.
Correlation-based feature selection was employed to initially select important descriptors from a large set of descriptors obtained from the calculation. The pair-correlation of each descriptor value and bioactivity (pIC50) was calculated using a Pearson's correlation coefficient (r) of 0.6 as a cut-off value. Descriptors with |r| < 0.6 were considered weakly correlated descriptors and were excluded from the study, whereas those with |r| ≥ 0.6 were selected for further selection process using stepwise multiple linear regression (MLR) as implemented in SPSS statistics 18.0 (SPSS Inc., USA[41]). Finally, a set of important descriptors was obtained for multivariate analysis.
Multivariate analysis was performed by Waikato Environment for Knowledge Analysis (WEKA) version 3.4.5 (Witten et al., 2011[47]) using a multiple linear regression (MLR) algorithm. Selected descriptor values and pIC50 values were assigned as independent variables (X) and dependent variables (Y), respectively. The MLR model was constructed according to Equation 2: […]
The data set was divided into a training set and a testing set by means of leave-one-out cross validation (LOO-CV). Conceptually, one sample was removed from the entire data set (N) and was used as the testing set, whereas the remaining samples (N-1) were used as the training set. The same sampling process was continued until every sample in the data set was used as the testing set to predict the variable Y (activity). […]

[5] = Aromatase inhibitory activity IC50, Inactive = % inhibition ≤ 50 % at 12.5 µM
[6] = Experimental aromatase inhibitory activity (pIC50), -log IC50 of the experimental IC50 values

For O=C1C(Cl)=C(Cl)C(=O)c2ccccc21 [Compound 1, 2,3-dichloro-1,4-naphthoquinone], the “SI (selectivity index)” value [1] is listed as 45.98, the IC50 [2] is listed as 23 ± 0.42 µM and the “IC50 fold lower than ketoconazole” value [3] is listed as 5.2 fold. For the same compound, the IC50 [3, 5] was 0.5 ± 0.3 µM, the IC50 [3, 6] was 0.5 µM and the “Aromatase inhibitory activity category” value [3] was “highly active (highly active (IC50 < 1 µM))”.

With CN(C1=C(Cl)C(=O)c2ccccc2C1=O)c1ccc(C(=O)C(F)(F)F)cc1 [Compound 7b] the “folds more potent than the compared analogue” value [4] was 2.28 folds.

For CC(=O)c1cccc(NC2=C(Cl)C(=O)c3ccccc3C2=O)c1 [Compound 6], the “SI (selectivity index)” value [1] is given as 5.01, the “folds more potent than the compared analogue” value [4] is given as 1.83 folds and the IC50 [2] is given as 15.5 ± 0.75 µM. The IC50 [3, 5] was 3.1 µM, the IC50 [3, 6] was 3.1 µM and the “Aromatase inhibitory activity category” value [3] was “moderately active (moderately active (1 µM < IC50 < 10 µM))”.

In the case of O=C1C(Br)=C(Br)C(=O)c2ccccc21 [Compound 1a], the “pIC50 fold greater than parent compound 1” value [4] is reported as 1.83 fold.

In the case of O=C1C(Cl)=C(NCCc2ccccc2)C(=O)c2ccccc21 [Compound 10], the “MRC-5 (µM) cytotoxicity” value [2] is given as “non-cytotoxic”, the IC50 [3, 5] is given as 3.3 µM and the IC50 [3, 6] is given as 3.3 µM. For the same compound, the “Aromatase inhibitory activity category” value [3] was “moderately active (moderately active (1 µM < IC50 < 10 µM))”.

In the case of COc1cccc2c1C(=O)c1c(O)c3c(c(O)c1C2=O)C[C@@](O)(C(=O)CO)C[C@@H]3O[C@H]1C[C@H](N)[C@H](O)[C@H](C)O1 [Doxorubicin, reference compound], the “MRC-5 (µM) cytotoxicity” value [2] is given as “non-cytotoxic”.

For O=C1C(Cl)=C(Nc2ccccc2)C(=O)c2ccccc21 [Compound 3], the IC50 [2] is given as 16.4 ± 1.28 µM and the “Aromatase inhibitory activity category” value [3] is given as “inactive”.

For O=C(O)c1ccccc1NC1=C(Cl)C(=O)c2ccccc2C1=O [Compound 5], the “SI (selectivity index)” value [1] is listed as 4.78, the IC50 [2] is listed as 86 ± 3.04 µM and the IC50 [3, 5] is listed as 18 µM. The IC50 [3, 6] was 18 µM and the “Aromatase inhibitory activity category” value [3] was “weak”.

For O=C1C(Cl)=C(Nc2cccc3cccnc23)C(=O)c2ccccc21 [Compound 9], the “SI (selectivity index)” value [1] is given as 2.89, the IC50 [2] is given as 13.6 ± 1.33 µM and the IC50 [3, 5] is given as 4.7 µM. The IC50 [3, 6] was 4.7 µM and the “Aromatase inhibitory activity category” value [3] was “moderately active (moderately active (1 µM < IC50 < 10 µM))”.

In the case of CC(=O)c1ccc(N(C)C2=C(Cl)C(=O)c3ccccc3C2=O)cc1 [Compound 7c], the “folds more potent than the compared analogue” value [4] is reported as 2.73 folds.

In the case of CCCCNC1=C(Cl)C(=O)c2ccccc2C1=O [Compound 2], the “MRC-5 (µM) cytotoxicity” value [2] is listed as “non-cytotoxic”, the IC50 [3, 5] is listed as 8.7 ± 0.9 µM and the IC50 [3, 6] is listed as 8.71 µM. For the same compound, the “Aromatase inhibitory activity category” value [3] was “moderately active (moderately active (1 µM < IC50 < 10 µM))”.

In the case of O=C1C(Cl)=C(Nc2ccc(Nc3ccccc3)cc2)C(=O)c2ccccc21 [Compound 8], the “SI (selectivity index)” value [1] is given as 10.94, the IC50 [2] is given as 20.8 ± 0.68 µM and the IC50 [3, 5] is given as 1.9 µM. The IC50 [3, 6] was 1.9 µM and the “Aromatase inhibitory activity category” value [3] was “moderately active (moderately active (1 µM < IC50 < 10 µM))”.

In the case of CN(C1=C(Cl)C(=O)c2ccccc2C1=O)c1ccccc1 [Compound 4], the “SI (selectivity index)” value [1] is listed as 17.20, the IC50 [2] is listed as 8.6 ± 0.77 µM and the IC50 [3, 5] is listed as 0.5 ± 0.4 µM. For the same compound, the IC50 [3, 6] was 0.5 µM and the “Aromatase inhibitory activity category” value [3] was “highly active (highly active (IC50 < 1 µM))”.

In the case of COc1ccc(CCNC2=C(Cl)C(=O)c3ccccc3C2=O)cc1OC [Compound 11], the “MRC-5 (µM) cytotoxicity” value [2] is given as “non-cytotoxic” and the “Aromatase inhibitory activity category” value [3] is given as “inactive”.

In the case of CC(=O)c1ccc(NC2=C(Cl)C(=O)c3ccccc3C2=O)cc1 [Compound 7], the “SI (selectivity index)” value [1] is listed as 2.32, the IC50 [2] is listed as 12.3 ± 1.08 µM and the IC50 [3, 5] is listed as 5.3 µM. For the same compound, the IC50 [3, 6] was 5.3 µM and the “Aromatase inhibitory activity category” value [3] was “moderately active (moderately active (1 µM < IC50 < 10 µM))”.

With O=C1C(Cl)=C(Nc2ccc(C(=O)C(F)(F)F)cc2)C(=O)c2ccccc21 [Compound 7a] the “folds more potent than the compared analogue” value [4] was 1.47 folds.

For CC(=O)c1cccc(N(C)C2=C(Cl)C(=O)c3ccccc3C2=O)c1 [Compound 6c], the “folds more potent than the compared analogue” value [4] was 1.67 folds.

For O=C1C(I)=C(I)C(=O)c2ccccc21 [Compound 1b], the “pIC50 fold greater than parent compound 1” value [4] was 11.90 fold and the “pIC50 fold greater than letrozole” value ([4]; predicted pIC50 versus experimental pIC50 […] of letrozole) was 1.03 fold.

With O=C1C(F)=C(F)C(=O)c2ccccc21 [Compound 1c] the “pIC50 fold greater than parent compound 1” value [4] was 2.04 fold.

With CCN(C1=C(Cl)C(=O)c2ccccc2C1=O)c1ccccc1 [Compound 4a] the “pIC50 fold greater than parent compound 1” value [4] was 1.08 fold and the “fold less potent than letrozole” value ([4]; predicted pIC50 versus letrozole) was 10.68 fold.

In the case of CN(C1=C(Cl)C(=O)c2ccccc2C1=O)c1ccc(C(=O)O)cc1 [Compound 5d], the “folds more potent than ketoconazole” value ([4]; predicted pIC50 -0.329 versus ketoconazole pIC50 -0.415) is reported as 1.26 folds.
